Earlier results in patent US20080103199A1, “TREATMENT OF PERVASIVE DEVELOPMENTAL DISORDERS” (priority 2006, published 2008).

Tested on: dominant rats
Conditions: administered to dominant rats; literature (Malatynska 2002); cited from earlier work

SMILES | Effect on competitive behavior of dominant rats
CCCC(CCC)C(=O)[O-].[Na+] [sodium valproate] | significantly reduced competitive behavior
Clc1cccc(Cl)c1N=C1NCCN1 [clonidine] | significantly reduced competitive behavior
